According to the supplement of paper PMC10307832:

Legend:
Assay in all cases: relative viability (nuclei count vs DMSO), 5 days (fraction); higher = more cells survive
XMD13-2 + Olaparib = compound: C1CC1C(=O)NC2=NNC3=C2C=CC(=C3)C4=CC(=CC=C4)C(=O)NC5CC5 [XMD13-2] + O=C(c1cc(Cc2n[nH]c(=O)c3ccccc23)ccc1F)N1CCN(C(=O)C2CC2)CC1 [Olaparib] (partner 8 µM)
Outline: (§1)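 Lung cancer cell lines in 1536-well plates were dosed by pin tool the day after seeding, either with one drug alone or with a fixed anchor-drug dose plus five library-drug doses (not always all listed) in √10 steps. After 5 days, cells were fixed and their nuclei stained in one step (final 0.05% Triton X-100, 1% formaldehyde, 1 ug/ml Hoechst), then counted on 4× images. Relative viability is the nuclei count in treated wells divided by that in vehicle wells. Values are medians of duplicate plates.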

XMD13-2 + Trametinib = compound: C1CC1C(=O)NC2=NNC3=C2C=CC(=C3)C4=CC(=CC=C4)C(=O)NC5CC5 [XMD13-2] + CC(=O)Nc1cccc(-n2c(=O)n(C3CC3)c(=O)c3c(Nc4ccc(I)cc4F)n(C)c(=O)c(C)c32)c1 [Trametinib] (partner 0.02 µM)
Outline: as §1

XMD13-2 + Navitoclax = compound: C1CC1C(=O)NC2=NNC3=C2C=CC(=C3)C4=CC(=CC=C4)C(=O)NC5CC5 [XMD13-2] + CC1(C)CCC(c2ccc(Cl)cc2)=C(CN2CCN(c3ccc(C(=O)NS(=O)(=O)c4ccc(N[C@H](CCN5CCOCC5)CSc5ccccc5)c(S(=O)(=O)C(F)(F)F)c4)cc3)CC2)C1 [Navitoclax] (partner 0.5 µM)
Outline: as §1

Dasatinib + Pictilisib = compound: Cc1nc(Nc2ncc(C(=O)Nc3c(C)cccc3Cl)s2)cc(N2CCN(CCO)CC2)n1 [Dasatinib] + CS(=O)(=O)N1CCN(Cc2cc3nc(-c4cccc5[nH]ncc45)nc(N4CCOCC4)c3s2)CC1 [Pictilisib] (partner 1 µM)
Outline: as §1

In the case of UMC-11, the relative viability (XMD13-2 + Olaparib; first compound 0.05 µM) was 0.528, the relative viability (XMD13-2 + Olaparib; first compound 0.1581 µM) was 0.407 and the relative viability (XMD13-2 + Olaparib; first compound 0.5 µM) was 0.39. The relative viability (XMD13-2 + Olaparib; first compound 1.581 µM) was 0.364, the relative viability (XMD13-2 + Olaparib; first compound 5 µM) was 0.318 and the relative viability (XMD13-2 + Trametinib; first compound 0.05 µM) was 0.908. The relative viability (XMD13-2 + Trametinib; first compound 0.1581 µM) was 0.708, the relative viability (XMD13-2 + Trametinib; first compound 0.5 µM) was 0.726 and the relative viability (XMD13-2 + Trametinib; first compound 1.581 µM) was 0.685. The relative viability (XMD13-2 + Trametinib; first compound 5 µM) was 0.513, the relative viability (XMD13-2 + Navitoclax; first compound 0.05 µM) was 0.347 and the relative viability (XMD13-2 + Navitoclax; first compound 0.1581 µM) was 0.284. The relative viability (XMD13-2 + Navitoclax; first compound 0.5 µM) was 0.309, the relative viability (XMD13-2 + Navitoclax; first compound 1.581 µM) was 0.344 and the relative viability (XMD13-2 + Navitoclax; first compound 5 µM) was 0.265. It also gave a relative viability (Dasatinib + Pictilisib; first compound 0.005 µM) of 0.735, a relative viability (Dasatinib + Pictilisib; first compound 0.01581 µM) of 0.64 and a relative viability (Dasatinib + Pictilisib; first compound 0.05 µM) of 0.49. It also gave a relative viability (Dasatinib + Pictilisib; first compound 0.1581 µM) of 0.288 and a relative viability (Dasatinib + Pictilisib; first compound 0.5 µM) of 0.288.
